Assay results reported in article PMC7594721, “Synthesis and biological activity of 2-cyanoacrylamide derivatives tethered to imidazopyridine as TAK1 inhibitors” (Journal of Enzyme Inhibition and Medicinal Chemistry, 2020).
“Also recorded” adds a separate entry of the source.

Tests used:
TAK1 = molecular target: T1, TAK1 (Homo sapiens, UniProt O43318); experiment: TAK1 LanthaScreen Eu Kinase Binding Assay (Invitrogen; Table 1 calls it TAK1 enzymatic assay)
T1 construct: purchased Invitrogen (Thermo Fisher Scientific)
T1 sequence (O43318 with tags, fused parts or gaps limits assumed): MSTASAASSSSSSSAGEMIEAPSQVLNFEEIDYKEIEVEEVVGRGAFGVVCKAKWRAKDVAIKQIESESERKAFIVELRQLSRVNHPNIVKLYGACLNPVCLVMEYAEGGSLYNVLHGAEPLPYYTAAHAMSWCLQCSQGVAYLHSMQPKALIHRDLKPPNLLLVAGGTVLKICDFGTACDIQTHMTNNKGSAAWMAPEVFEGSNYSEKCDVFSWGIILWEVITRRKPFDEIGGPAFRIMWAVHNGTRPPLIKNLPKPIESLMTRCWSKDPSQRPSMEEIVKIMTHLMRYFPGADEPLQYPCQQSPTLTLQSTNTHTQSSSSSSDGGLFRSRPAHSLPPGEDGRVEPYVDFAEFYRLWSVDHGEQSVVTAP
Protocol: (§1) Kinase assays were performed by Invitrogen (now Thermo Fisher Scientific, Waltham, MA) or Reaction Biology Corp. (Malvern, PA). Inhibitory activity of compounds for TAK1 was evaluated using LanthaScreen® Eu Kinase Binding Assay (Invitrogen, Waltham, MA). The kinase profile of compound 13h was determined by the kinase HotSpot Profiling service of Reaction Biology Corporation. All assays were performed at Km for ATP.
Table 1. TAK1 enzymatic assay with imidazopyridine derivatives. ^a In-vitro enzymatic assay data obtained from Invitrogen^TM.

MDA-MB-231 cells = experiment: Caspase-3/7 assay (Apo-ONE); assay type: cell-based; conditions: 0.5 µM, presence of TNFα (10 ng/ml), 24 h, MDA-MB-231
Protocol: MDA-MB-231 cells were obtained from the Korean Cell Line Bank. Cells were cultured in Roswell Park Memorial Institute (RPMI) 1640 medium containing 10% foetal bovine serum and 1% penicillin/streptomycin at 37 °C with 5% CO2 under humidified atmosphere.
The assay was performed using Apo-ONE® Homogeneous Caspase-3/7 Assay kits (Catalogue No. G7790, Promega, Madison, WI). MDA-MB-231 cells in a concentration of 5000 cells/100 µl were seeded in each well of a black 96-well plate and starved after adhering to the plate. The cells were incubated for 24 h, and the serum-starved cells were treated with either Takinib or 13h in the presence or absence of TNFα (10 ng/ml). All samples and the control contained DMSO in a final concentration of 0.5%. After another 24 h of incubation, 100 µL of Apo-ONE® caspase-3/7 reagent was added to each well, and the cells were incubated at room temperature in darkness for 2 h. Fluorescence was then measured at 530 nm with excitation at 485 nm using a FlexStation 3 Multi-Mode microplate reader (Molecular Devices). Statistical analyses of the data included a one-way ANOVA, followed by Tukey’s multiple comparison test.

ZAK/MLTK = molecular target: T2, ZAK/MLTK (Homo sapiens, UniProt Q9NYL2); experiment: Kinase HotSpot profiling (Reaction Biology Corp.); assay type: biochemical; conditions: ATP at Km
T2 construct: purchased Reaction Biology Corp
Protocol: as §1

ASK1/MAP3K5 = molecular target: T3, ASK1/MAP3K5 (Homo sapiens, UniProt Q99683); experiment: Kinase HotSpot profiling (Reaction Biology Corp.); assay type: biochemical; conditions: ATP at Km
T3 construct: purchased Reaction Biology Corp
T3 sequence (Q99683 1-1374): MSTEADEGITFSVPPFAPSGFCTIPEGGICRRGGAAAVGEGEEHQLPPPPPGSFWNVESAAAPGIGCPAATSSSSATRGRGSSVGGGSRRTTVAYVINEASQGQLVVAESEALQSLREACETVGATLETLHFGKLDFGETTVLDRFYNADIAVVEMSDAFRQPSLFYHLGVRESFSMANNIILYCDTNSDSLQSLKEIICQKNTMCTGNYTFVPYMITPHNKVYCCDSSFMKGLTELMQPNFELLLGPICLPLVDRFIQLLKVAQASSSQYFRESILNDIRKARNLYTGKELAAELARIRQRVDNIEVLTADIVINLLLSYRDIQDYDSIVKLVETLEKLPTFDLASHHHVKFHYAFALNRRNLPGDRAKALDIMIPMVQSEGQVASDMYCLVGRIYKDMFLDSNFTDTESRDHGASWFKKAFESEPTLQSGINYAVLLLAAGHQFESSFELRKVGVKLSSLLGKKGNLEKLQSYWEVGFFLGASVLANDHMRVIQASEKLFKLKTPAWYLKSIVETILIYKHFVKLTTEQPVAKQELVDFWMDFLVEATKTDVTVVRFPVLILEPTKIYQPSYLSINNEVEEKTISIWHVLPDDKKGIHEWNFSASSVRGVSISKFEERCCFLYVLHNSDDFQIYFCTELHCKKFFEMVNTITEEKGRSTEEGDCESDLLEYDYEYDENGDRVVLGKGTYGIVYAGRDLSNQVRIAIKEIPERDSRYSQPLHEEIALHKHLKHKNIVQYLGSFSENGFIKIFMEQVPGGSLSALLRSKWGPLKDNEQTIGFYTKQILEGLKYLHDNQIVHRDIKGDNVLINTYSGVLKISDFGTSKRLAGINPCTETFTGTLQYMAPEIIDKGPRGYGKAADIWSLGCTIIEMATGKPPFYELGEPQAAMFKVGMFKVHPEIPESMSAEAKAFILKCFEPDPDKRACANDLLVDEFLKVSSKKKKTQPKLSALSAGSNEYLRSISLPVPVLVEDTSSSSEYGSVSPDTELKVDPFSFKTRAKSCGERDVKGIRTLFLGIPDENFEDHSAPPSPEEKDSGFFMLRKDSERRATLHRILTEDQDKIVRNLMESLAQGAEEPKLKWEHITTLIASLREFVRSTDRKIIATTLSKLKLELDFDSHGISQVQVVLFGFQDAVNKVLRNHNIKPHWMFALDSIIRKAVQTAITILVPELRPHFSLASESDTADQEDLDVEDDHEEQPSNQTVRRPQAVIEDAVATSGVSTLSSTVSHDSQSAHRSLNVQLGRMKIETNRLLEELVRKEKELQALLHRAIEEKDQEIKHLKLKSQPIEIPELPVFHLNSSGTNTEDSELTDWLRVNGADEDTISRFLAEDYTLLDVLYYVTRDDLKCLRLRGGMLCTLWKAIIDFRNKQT
Protocol: as §1

MEK2/MAP2K2 = molecular target: T4, MEK2/MAP2K2 (Homo sapiens, UniProt P36507); experiment: Kinase HotSpot profiling (Reaction Biology Corp.); assay type: biochemical; conditions: ATP at Km
T4 construct: purchased Reaction Biology Corp
Protocol: as §1

MEK1/MAP2K1 = molecular target: T5, MEK1/MAP2K1 (Homo sapiens, UniProt Q02750); experiment: Kinase HotSpot profiling (Reaction Biology Corp.); assay type: biochemical; conditions: ATP at Km
T5 construct: purchased Reaction Biology Corp
Protocol: as §1

MEKK1 = molecular target: T6, MEKK1 (Homo sapiens, UniProt Q13233); experiment: Kinase HotSpot profiling (Reaction Biology Corp.); assay type: biochemical; conditions: ATP at Km
T6 construct: purchased Reaction Biology Corp
Protocol: as §1

MLK1/MAP3K9 = molecular target: T7, MLK1/MAP3K9 (Homo sapiens, UniProt P80192); experiment: Kinase HotSpot profiling (Reaction Biology Corp.); assay type: biochemical; conditions: ATP at Km
T7 construct: purchased Reaction Biology Corp
Protocol: as §1

T2 sequence (Q9NYL2 whole entry): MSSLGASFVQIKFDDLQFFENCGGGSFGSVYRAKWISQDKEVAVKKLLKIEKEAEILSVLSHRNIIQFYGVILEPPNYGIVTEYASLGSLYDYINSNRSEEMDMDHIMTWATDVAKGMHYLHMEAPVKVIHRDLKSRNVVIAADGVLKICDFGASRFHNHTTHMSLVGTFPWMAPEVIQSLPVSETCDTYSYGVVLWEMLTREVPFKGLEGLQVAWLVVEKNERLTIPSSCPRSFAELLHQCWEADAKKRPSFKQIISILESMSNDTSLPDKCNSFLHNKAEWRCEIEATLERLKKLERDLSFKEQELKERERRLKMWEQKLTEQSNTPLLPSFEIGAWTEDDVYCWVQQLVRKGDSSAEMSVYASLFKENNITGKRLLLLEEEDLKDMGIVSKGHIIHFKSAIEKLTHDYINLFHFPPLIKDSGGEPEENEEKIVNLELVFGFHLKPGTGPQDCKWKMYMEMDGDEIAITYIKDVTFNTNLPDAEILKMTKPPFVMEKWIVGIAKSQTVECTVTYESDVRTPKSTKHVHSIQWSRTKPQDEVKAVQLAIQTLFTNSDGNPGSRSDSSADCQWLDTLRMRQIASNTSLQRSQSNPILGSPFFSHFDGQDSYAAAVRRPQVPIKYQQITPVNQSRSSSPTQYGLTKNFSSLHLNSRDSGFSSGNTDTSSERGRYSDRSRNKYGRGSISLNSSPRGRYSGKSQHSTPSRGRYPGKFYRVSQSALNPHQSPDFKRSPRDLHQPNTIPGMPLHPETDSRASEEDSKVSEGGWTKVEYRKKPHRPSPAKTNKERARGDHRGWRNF
T4 sequence (P36507 whole entry): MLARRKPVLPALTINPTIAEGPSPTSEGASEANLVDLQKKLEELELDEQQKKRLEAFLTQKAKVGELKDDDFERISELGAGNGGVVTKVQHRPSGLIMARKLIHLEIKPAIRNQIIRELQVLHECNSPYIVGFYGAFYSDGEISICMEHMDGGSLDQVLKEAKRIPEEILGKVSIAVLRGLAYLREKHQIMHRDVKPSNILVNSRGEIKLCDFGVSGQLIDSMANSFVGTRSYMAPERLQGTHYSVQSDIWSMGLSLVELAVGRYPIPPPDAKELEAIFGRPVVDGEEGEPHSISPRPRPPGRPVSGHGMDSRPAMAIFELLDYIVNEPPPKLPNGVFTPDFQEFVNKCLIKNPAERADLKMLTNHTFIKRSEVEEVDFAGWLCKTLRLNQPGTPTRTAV
T6 sequence (Q13233 whole entry): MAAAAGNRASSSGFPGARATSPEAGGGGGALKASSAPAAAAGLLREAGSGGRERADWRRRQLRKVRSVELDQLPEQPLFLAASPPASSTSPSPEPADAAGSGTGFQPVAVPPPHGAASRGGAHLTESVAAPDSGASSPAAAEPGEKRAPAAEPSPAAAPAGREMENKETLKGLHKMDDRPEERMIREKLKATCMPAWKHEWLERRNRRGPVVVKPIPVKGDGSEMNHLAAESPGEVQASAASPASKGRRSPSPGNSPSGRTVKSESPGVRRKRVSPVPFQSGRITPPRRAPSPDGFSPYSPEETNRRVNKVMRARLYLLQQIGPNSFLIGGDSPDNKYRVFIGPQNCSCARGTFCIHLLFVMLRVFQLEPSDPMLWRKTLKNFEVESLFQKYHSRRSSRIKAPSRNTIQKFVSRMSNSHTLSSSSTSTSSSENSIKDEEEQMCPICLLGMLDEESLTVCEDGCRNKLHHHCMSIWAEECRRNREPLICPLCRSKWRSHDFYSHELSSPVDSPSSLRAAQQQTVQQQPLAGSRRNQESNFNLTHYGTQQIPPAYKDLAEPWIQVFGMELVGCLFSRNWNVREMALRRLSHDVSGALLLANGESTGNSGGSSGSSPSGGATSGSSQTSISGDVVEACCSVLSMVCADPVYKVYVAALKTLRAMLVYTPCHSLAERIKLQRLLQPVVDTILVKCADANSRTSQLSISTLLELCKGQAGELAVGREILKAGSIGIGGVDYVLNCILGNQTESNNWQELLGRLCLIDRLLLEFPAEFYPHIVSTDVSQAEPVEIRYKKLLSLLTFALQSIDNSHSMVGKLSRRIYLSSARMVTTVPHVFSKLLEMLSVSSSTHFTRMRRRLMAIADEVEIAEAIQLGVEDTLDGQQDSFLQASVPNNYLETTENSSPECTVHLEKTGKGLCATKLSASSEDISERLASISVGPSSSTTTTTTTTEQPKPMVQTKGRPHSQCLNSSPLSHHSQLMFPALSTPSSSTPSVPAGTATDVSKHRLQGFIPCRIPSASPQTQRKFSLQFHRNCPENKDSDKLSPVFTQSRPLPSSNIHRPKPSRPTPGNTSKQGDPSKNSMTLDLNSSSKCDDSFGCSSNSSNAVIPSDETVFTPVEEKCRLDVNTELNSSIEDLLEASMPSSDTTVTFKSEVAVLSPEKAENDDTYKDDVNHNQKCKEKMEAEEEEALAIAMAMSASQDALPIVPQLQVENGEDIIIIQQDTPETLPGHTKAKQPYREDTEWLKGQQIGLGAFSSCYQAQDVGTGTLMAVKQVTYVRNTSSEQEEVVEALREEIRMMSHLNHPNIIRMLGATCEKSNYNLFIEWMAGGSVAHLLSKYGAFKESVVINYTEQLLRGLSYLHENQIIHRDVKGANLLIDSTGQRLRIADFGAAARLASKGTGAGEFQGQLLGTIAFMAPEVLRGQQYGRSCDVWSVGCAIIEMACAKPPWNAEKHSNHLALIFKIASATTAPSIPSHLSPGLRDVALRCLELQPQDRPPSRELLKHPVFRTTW
T7 sequence (P80192 whole entry): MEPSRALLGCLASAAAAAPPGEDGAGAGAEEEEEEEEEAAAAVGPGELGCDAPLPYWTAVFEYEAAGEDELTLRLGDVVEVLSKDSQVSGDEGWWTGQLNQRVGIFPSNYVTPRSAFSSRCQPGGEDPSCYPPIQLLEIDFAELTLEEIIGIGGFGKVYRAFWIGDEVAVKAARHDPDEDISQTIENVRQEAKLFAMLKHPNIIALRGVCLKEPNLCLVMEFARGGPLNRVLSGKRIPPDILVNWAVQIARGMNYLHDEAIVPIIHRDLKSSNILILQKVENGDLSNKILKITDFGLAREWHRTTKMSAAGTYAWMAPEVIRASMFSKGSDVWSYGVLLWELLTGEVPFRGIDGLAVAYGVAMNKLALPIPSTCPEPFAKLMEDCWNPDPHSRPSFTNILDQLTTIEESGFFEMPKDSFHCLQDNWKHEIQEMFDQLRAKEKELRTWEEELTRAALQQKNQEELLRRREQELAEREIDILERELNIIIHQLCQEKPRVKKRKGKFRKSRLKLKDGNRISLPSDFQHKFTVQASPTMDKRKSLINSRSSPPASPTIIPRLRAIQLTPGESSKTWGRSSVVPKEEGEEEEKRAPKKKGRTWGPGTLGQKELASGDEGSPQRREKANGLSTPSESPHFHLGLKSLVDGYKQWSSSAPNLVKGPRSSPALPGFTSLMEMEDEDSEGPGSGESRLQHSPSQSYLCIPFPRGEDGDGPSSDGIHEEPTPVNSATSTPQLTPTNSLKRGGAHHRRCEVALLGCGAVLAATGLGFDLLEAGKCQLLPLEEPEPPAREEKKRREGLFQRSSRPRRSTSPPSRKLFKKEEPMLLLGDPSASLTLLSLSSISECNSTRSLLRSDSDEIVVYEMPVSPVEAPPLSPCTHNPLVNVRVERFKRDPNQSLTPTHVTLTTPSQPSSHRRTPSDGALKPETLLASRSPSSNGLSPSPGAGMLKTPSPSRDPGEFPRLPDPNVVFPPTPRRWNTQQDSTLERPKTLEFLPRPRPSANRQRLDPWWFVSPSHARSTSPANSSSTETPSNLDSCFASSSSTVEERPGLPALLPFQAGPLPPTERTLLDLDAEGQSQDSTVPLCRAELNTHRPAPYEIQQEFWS
T5 sequence (Q02750 whole entry): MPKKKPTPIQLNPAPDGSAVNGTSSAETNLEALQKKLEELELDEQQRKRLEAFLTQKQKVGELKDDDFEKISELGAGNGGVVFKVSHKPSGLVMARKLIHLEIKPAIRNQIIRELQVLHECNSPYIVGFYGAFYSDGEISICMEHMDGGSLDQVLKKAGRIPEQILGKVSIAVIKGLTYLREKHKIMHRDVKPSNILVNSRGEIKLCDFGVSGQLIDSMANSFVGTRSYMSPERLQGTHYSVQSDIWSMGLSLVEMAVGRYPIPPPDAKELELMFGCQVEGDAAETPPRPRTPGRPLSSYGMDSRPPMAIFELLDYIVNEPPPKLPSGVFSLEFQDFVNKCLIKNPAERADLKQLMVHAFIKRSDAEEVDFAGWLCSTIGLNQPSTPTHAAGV

## Cc1cccc(/C=C(\C#N)C(=O)N[C@@H]2CCN(c3c(Cl)cnc4[nH]c(-c5ccc(N6CCN(C)CC6)cc5)nc34)C2)n1 [Compound 13h, (R,E)-N-(1–(6-chloro-2–(4-(4-methylpiperazin-1-yl)phenyl)-3H-imidazo[4,5-b]pyridin-7-yl)pyrrolidin-3-yl)-2-cyano-3-(6-methylpyridin-2-yl)acrylamide]
TAK1; Table 1 SAR discussion
  TAK1 potency, SAR result in words: maintained or improved potency; also recorded: excellent
TAK1; read-out: IC50 against TAK1
  IC50: 27 nM
MDA-MB-231 cells
  caspase-3/7 activity: induced significant caspase activation
ZAK/MLTK
  inhibition at 1 µM: 29 ± 1.4%
ASK1/MAP3K5
  inhibition at 1 µM: 4%
MEK2/MAP2K2
  inhibition at 1 µM: 23 ± 1.9%
MEK1/MAP2K1
  inhibition at 1 µM: 10 ± 0.7%
MEKK1
  inhibition at 1 µM: 12 ± 0.7%
MLK1/MAP3K9
  inhibition at 1 µM: 35 ± 1.2%
